According to article PMC139962 (Lipids in Health and Disease, 2002):
Like-named read-outs stand apart in the source and are kept apart here.

Assays:
[1] = target: AEA membrane transporter (AMT); assay type: biochemical, human; conditions: for Ki: read-out: Ki (inhibition of AMT); for IC50: read-out: IC50 of inhibition of [3H]AEA uptake; for inhibition of [3H]AEA uptake: 100 µM
[2] = test system: AEA membrane transporter (AMT); assay: [3H]AEA uptake by human healthy brain; assay type: biochemical; conditions: for IC50: read-out: IC50 of inhibition of [3H]AEA uptake, 15 min at 37°C
[3] = test system: AEA membrane transporter (AMT); assay: [3H]AEA uptake by mouse brain; assay type: biochemical; conditions: mouse brain synaptosomes
[4] = test system: AEA membrane transporter (AMT); assay: [3H]AEA uptake by rat brain; assay type: biochemical; conditions: rat brain synaptosomes

NC(=O)CCC(N)C(=O)O (stereo in doubt) [D-Glutamine]
Ki [1]: 0.525 ± 0.05 µM

CCCCC/C=C\C/C=C\C/C=C\C/C=C\CCCC(=O)OC(CO)CO [2-AG, 2-arachidonoylglycerol]
effect on accumulation of 200 nM [3H]AEA [1]: inhibited almost completely

CCCCC/C=C\C/C=C\C/C=C\C/C=C\CCCC(=O)NCCO [AEA, N-arachidonoylethanolamine]
Q10 (ratio of AEA uptake at 30°C and 20°C) ([2]; HB synaptosomes): ~ 1.5
Vmax of AEA uptake ([2]; human healthy brain synaptosomes, 15 min, 0-1000 nM [3H]AEA, 37°C minus 4°C): 374 ± 38 pmol/min per mg protein
Q10 (ratio of AEA uptake at 30°C and 20°C) [1]: ~ 1.5
Vmax of AEA uptake [1]: 219 ± 19 pmol/min per mg protein
effect on accumulation of 200 nM [3H]AEA [1]: fully inhibited
Km ([1]; read-out: apparent Km of AEA uptake): 0.793 ± 0.128 µM
Vmax of AEA uptake [3]: 370 ± 23 pmol/min per mg protein
Km ([3]; read-out: Km of AEA uptake): 0.66 ± 0.08 µM
Vmax of AEA uptake [4]: 357 ± 18 pmol/min per mg protein
Km ([4]; read-out: Km of AEA uptake): 0.483 ± 0.052 µM

CCCCC/C=C\C/C=C\C/C=C\C/C=C\CCCC(=O)Nc1ccc(O)cc1 [AM404, N-(4-hydroxyphenyl)-arachidonoylamide]
IC50 ([2]; HB synaptosomes): ~7 µM
IC50 [1]: ~7 µM

N[C@H](CCC(=O)O)C(=O)O [D-Glutamate]
Ki [1]: 1.23 ± 0.11 µM

N[C@@H](CCC(=O)O)C(=O)O [L-Glutamate]
Ki [1]: 4 ± 0.37 µM

NC(=O)CC[C@H](N)C(=O)O [L-Glutamine]
Ki [1]: 1.1 ± 0.09 µM

CCN1C(=O)C=CC1=O [N-ethylmaleimide]
inhibition of [3H]AEA uptake [1]: ~ 50%

O=S(=O)(F)Cc1ccccc1 [PMSF, phenylmethylsulfonyl fluoride]
inhibition of [3H]AEA uptake [1]: ~ 50%

N=c1c[n+](N2CCOCC2)[n-]o1 [SIN-1, 3-morpholinosydnonimine]
enhancement of [3H]AEA uptake [1]: 180–220%

CCCCC/C=C\C/C=C\C/C=C\C/C=C\CCCC(=O)Nc1ccc(O)cc1C [VDM11]
IC50 ([2]; HB synaptosomes): ~7 µM
IC50 [1]: ~7 µM

CCCCC/C=C\C/C=C\C/C=C\C/C=C\CCCC(=O)O [arachidonic acid]
effect on accumulation of 200 nM [3H]AEA [1]: ineffective

NCCO [ethanolamine]
effect on accumulation of 200 nM [3H]AEA [1]: ineffective

O=C(O)CI [iodoacetic acid]
inhibition of [3H]AEA uptake [1]: ~ 50%

CCCCC/C=C\C[C@@H](O)/C=C/C=C/C=C\[C@@H](O)CCCC(=O)O [leukotriene B4]
effect on accumulation of 200 nM [3H]AEA [1]: not affected

CCCCC[C@H](O)/C=C/[C@H]1[C@H](O)CC(=O)[C@@H]1C/C=C\CCCC(=O)O [prostaglandin E2]
effect on accumulation of 200 nM [3H]AEA [1]: not affected
